Measurements: patent publication US10898434B2, “Single-walled carbon nanotube-assisted antibiotic delivery and imaging techniques” (Texas Christian University, priority 2018, dated 2021)

Columns and labels:
Assay type in all cases: cell-based, Staphylococcus epidermidis
[1] = system: S. epidermidis; test: Disk diffusion (zone inhibition) assay; conditions: 2 and 4 mg doses; compared to non-treatment control; 24 h at 37° C.
Experimental: S. epidermidis broth of McFarland 0.5 standard (absorption of 0.08 to 0.1) was created using Mueller Hilton Broth. This standard stabilized the cell count at an approximate 1×10^8 CFU/mL Dilution was plated within 15 minutes of standardization. Following the proper aseptic techniques, 0.2 mL of bacterial broth was placed in the center of prepared agar dish. A sterile bacteria spreader was used to evenly spread the bacteria throughout the plate to create a lawn.
Two different dosages of the antibacterial solutions were tested to increase the breadth and reliability of data. […] Petri dishes are incubated for 24 h at 37° C., then the zones of inhibition were measured with the inclusion of disk diameter in the measurements.
The statistical analysis performed in this work confirm the significance of the observed results for diffusion discs performed at different amounts of SWCNT/antibiotic complex loaded onto discs. […] When the p-value of the analysis is lower than the confidence level chosen, the hypothesis is proven false and a significant difference and variation is detected.
The dataset is analyzed using a comparison of means function by assigning a mean of the control group and comparing it to the means of each of the treatment groups. […]

[2] = system: S. epidermidis; test: Colony count (colony formation) assay; conditions: 100 μl stock solution, 24 h at 37° C.
Experimental: Using S. epidermidis broth (McFarland 0.5 standard), 100 μl was placed in the center of the agar plate. 100 μl of the respective antibacterial stock solution is added to the center. Bacteria was spread through the Petri dish and the plates were further incubated for 24 h at 37° C. Pictures of the plates were uploaded onto the OpenCFU software to count the number of colonies grown on the plate. Two plates were prepared for each antibacterial treatment with corresponding controls.

[3] = system: S. epidermidis; test: Turbidity assay (absorption at 600 nm); conditions: serial dilution, 24 h at 37° C.
Experimental: A serial dilution (using the factor of 2) of antibacterial solutions was conducted in 12-well plates starting with 200 μL of antibacterial solution was placed in first well. 850 μl of broth and 50 μl of bacterial broth were added to each well plate. The concentrations tested for doxycycline were 1, 0.5, 0.25, 0.125 and 0 mg/mL. The concentrations tested for methicillin are 1.25, 0.625,0.313, […] and 0 mg/mL. Plates were that incubated at 37° C. for 24 h. The solutions were transferred to cuvettes, and their turbidity is measured using a Cary 500 spectrophotometer with the broth used as a baseline. Two wells were prepared for each concentration.

COc1cccc(OC)c1C(=O)N[C@@H]1C(=O)N2[C@@H]1SC(C)(C)[C@@H]2C(=O)O [methicillin]
antibacterial effect (zone of inhibition) of antibiotic alone [1]: no antibiotic activity | colony count (in words) [2]: complete lack of inhibition response | turbidity of bacterial media (absorption at 600 nm) [3]: some bacterial inhibition
